Experimental data: patent publication US4190725A, “5,6-Diaryl-1,2,4-triazines” (Eli Lilly and Company, priority 1978, dated 1980)

tested on: Erythemic response; test: Erythemic response inhibition, UV-exposed guinea pig skin (modified method of Winder), topical; assay type: in vivo, Albino guinea pigs; details: dose 100 mcg./12 cm.^2, in 0.1 cc. ethanol, groups of four
Protocol: A modification of the method of Winder was used to measure the anti-inflammatory activites of the compounds of the present invention; see C. V. Winder, et al., Arch. Int. Pharmacodyn., 116, 261 (1958). Albino guinea pigs of either sex, weighing 225-300 grams, were shaved on the back and chemically depilated (Nair® Lotion Hair Remover, Carter Products, N.Y., N.Y.) 18-20 hours before exposure to ultraviolet light. The animals, in groups of four and bearing identifying ear tags, were treated by applying to an area of skin of about 12 cm.^2 a solution of test compound dissolved in 0.1 cc. of ethanol. The control treatment consisted of administering only the drug vehicle, ethanol, to a group of four animals. Groups of four animals each were given different treatment levels of test compound to obtain dose responses. Random order and blind administration of the test compounds were employed; drug identification was not made until after all animals were graded. Immediately prior to drug application, the animals were exposed in groups of four to a high-intensity ultraviolet light for a measured period of time (usually 4-7 seconds). The ultraviolet light source, a Hanovia Lamp (Kroymayer-Model 10), was placed in contact with the skin of the animal's back. A gummed notebook paper reinforcement was affixed to the lamp lens to provide an unexposed area of contrast for grading the erythema. Beginning one hour after exposure and thereafter at half-hour intervals for another 11/2 hours, the degree of resulting erythema was graded by an arbiturary scoring system based upon the degree of contrast and redness formed. Anti-inflammatory agents delay the development of the erythema and usually have their greatest effect at the initial grading periods. The scores were, therefore, weighted by factors of 4, 3, 2, and 1 at the 1.0, 1.5, 2.0, and 2.5 hour scoring times, respectively. The erythema was graded as follows: […]
______________________________________
Score Appearance of Exposed Area
0 No redness and no contrast
1 Slight redness with a faint
2 Slight to moderate redness
with a distinct outline
3 Marked redness with a distinct
Total scores from each treatment group of four guinea pigs were compared to the control treatment, and the percent inhibition was calculated as follows: [formula]
A dose-response graph was obtained by plotting dose versus percent inhibition, the points representing the average of each treatment group of four guinea pigs. The dose (ED50) in micrograms per 12 cm.^2 (mcg./12 cm.^2) which produced a 50% inhibition of the erythemic response for the particular compound tested was obtained in several instances by extrapolation. Table I below summarizes the results obtained from testing representative compounds of the invention by the foregoing method. The plotted or calculated ED50 for the particular compound tested, where available, is given in the last column of Table I.

SMILES	Inhibition % (% Inhibition compared with control)
COc1ccc(-c2nnc(SCc3ccccc3)nc2-c2ccc(OC)cc2)cc1 [CH2 C6 H5 S 1 OCH3 OCH3, 3-benzylthio-5,6-bis(4-methoxyphenyl)-1,2,4-triazine]	49%
COc1ccc(-c2nnc(SC(C)C)nc2-c2ccc(OC)cc2)cc1 [CH(CH3)2 S 1 OCH3 OCH3, 3-isopropylthio-5,6-bis(4-methoxyphenyl)-1,2,4-triazine]	35%

same assay, conditions: in 0.1 cc. ethanol, 12 cm.^2 skin, groups of four, plotted or calculated, in several instances by extrapolation

SMILES	ED50 (dose which produced a 50% inhibition of the erythemic response)
CCc1nnc(-c2ccc(OC)cc2)c(-c2ccc(OC)cc2)n1 [C2 H5 -- 0 OCH3 OCH3, 3-ethyl-5,6-bis(4-methoxyphenyl)-1,2,4-triazine]	4 mcg./12 cm.^2
CCOc1nnc(-c2ccc(OC)cc2)c(-c2ccc(OC)cc2)n1 [C2 H5 O 1 OCH3 OCH3, 3-ethoxy-5,6-bis(4-methoxyphenyl)-1,2,4-triazine]	3.1 mcg./12 cm.^2
CCSc1nnc(-c2ccc(OC)cc2)c(-c2ccc(OC)cc2)n1 [C2 H5 S 1 OCH3 OCH3, 3-ethylthio-5,6-bis(4-methoxyphenyl)-1,2,4-triazine]	21.3 mcg./12 cm.^2
CCCCCCSc1nnc(-c2ccc(OC)cc2)c(-c2ccc(OC)cc2)n1 [C6 H13 S 1 OCH3 OCH3, 3-hexylthio-5,6-bis(4-methoxyphenyl)-1,2,4-triazine]	37.4 mcg./12 cm.^2
COc1ccc(-c2nnc(C)nc2-c2ccc(OC)cc2)cc1 [CH3 -- 0 OCH3 OCH3, 5,6-bis(4-methoxyphenyl)-3-methyl-1,2,4-triazine]	2.4 mcg./12 cm.^2
COc1ccc(-c2nnc(OC)nc2-c2ccc(OC)cc2)cc1 [CH3 O 1 OCH3 OCH3, 3-methoxy-5,6-bis(4-methoxyphenyl)-1,2,4-triazine]	7 mcg./12 cm.^2
COc1ccc(-c2nnc(SC)nc2-c2ccc(OC)cc2)cc1 [CH3 S 1 OCH3 OCH3, 5,6-bis(4-methoxyphenyl)-3-methylthio-1,2,4-triazine]	9 mcg./12 cm.^2
